Several values for one entry are separate records, joined by “and”; a condition that tells them apart may be missing. Identical values can stand only once. Where a SMILES comes first, the peptide text is derived from it.
System: lipase
Test: Lipase/lipolysis assay (EnzChek Lipase Substrate, quenched BODIPY-fatty acid conjugate) on stored human milk; note: test concentration or dose not given here

Compound	Lipase (RFU)
OC[C@H]1O[C@@H](Oc2cc3c(O)cc(O)cc3[o+]c2-c2ccc(O)c(O)c2)[C@H](O)[C@@H](O)[C@@H]1O.[Cl-] [Kuromanin (chloride)]	1192.7 RFU
COc1cc2oc(=O)ccc2cc1CC=C(C)C [Suberosin]	1003.25 RFU
Riboflavin (phosphate sodium)	1091.899 RFU
CCCCCCCCC[C@H](O)CC(=O)CCc1ccc(O)c(OC)c1 [Compound 10-Gingerol]	817.7781 RFU
C=C(C)[C@@H]1CCC2=CCC[C@@H](C)[C@]2(C)C1 [Valencene]	980.1668 RFU
O=C(CO)[C@H](O)[C@H](O)[C@H](O)CO [D-Psicose]	990.8733 RFU
Chicoric acid	1008.153 RFU
C/C1=C2/[N-][C@H]([C@H](CC(N)=O)[C@@]2(C)CCC(=O)NC[C@@H](C)OP(=O)([O-])O[C@H]2[C@@H](O)[C@@H](n3cnc4cc(C)c(C)cc43)O[C@@H]2CO)[C@]2(C)N=C(/C(C)=C3N=C(/C=C4N=C1[C@@H](CCC(N)=O)C\4(C)C)[C@@H](CCC(N)=O)[C@]\3(C)CC(N)=O)[C@@H](CCC(N)=O)[C@]2(C)CC(N)=O.[CH2-][C@H]1O[C@@H](n2cnc3c(N)ncnc32)[C@H](O)[C@@H]1O.[Co] [Adenosylcobalamin]	817.3471 RFU
C[C@H](N)C(=O)NCC(=O)O [L-Alanyl-Glycine] (H-Ala-Gly-OH)	816.3246 RFU
OC[C@H]1O[C@H](OC[C@H]2O[C@H](O[C@]3(CO)O[C@H](CO)[C@@H](O)[C@@H]3O)[C@H](O)[C@@H](O)[C@@H]2O)[C@H](O)[C@@H](O)[C@H]1O [D-Raffinose]	981.0683 RFU
OC[C@H]1O[C@H](OC[C@H]2OC(O)(CO)[C@@H](O)[C@@H]2O)[C@H](O)[C@@H](O)[C@@H]1O (stereo partly shown) [Palatinose]	803.211 RFU
CC1=C(O)C(=O)C=C2C1=CC=C1[C@@]2(C)CC[C@@]2(C)[C@@H]3C[C@](C)(C(=O)O)CC[C@]3(C)CC[C@]12C [Tripterin]	952.6128 RFU
CCCCCCCCCC(=O)OCC(COC(=O)CCCCCCCCC)OC(=O)CCCCCCCCC [Trisdecanoin]	969.1379 RFU
OC[C@H]1O[C@@H](O[C@H]2[C@H](O)[C@@H](O)[C@H](O)O[C@@H]2CO)[C@H](O)[C@@H](O)[C@@H]1O [D-(+)-Cellobiose]	821.3157 RFU
N[C@@H](CC(=O)O)C(=O)[O-].[Na+] [L-Aspartic aicd (sodium)]	708.7772 RFU and 1026.622 RFU
O=P(O)(O)OC(CO)CO [b-Glycerol Phosphate]	984.3562 RFU
COc1cc(C2Oc3ccc([C@H]4Oc5cc(O)cc(O)c5C(=O)[C@@H]4O)cc3OC2CO)ccc1O (stereo partly shown) [Isosilybin]	921.7702 RFU
C[C@]12CC[C@H]3[C@@H](CCC4=CC(=O)CC[C@@]43C)[C@@H]1CC[C@@H]2C(=O)CO [Deoxycorticosterone]	992.8813 RFU
O=C(/C=C/c1ccc(O)cc1)c1ccc(O[C@@H]2O[C@H](CO)[C@@H](O)[C@H](O)[C@H]2O)cc1O [Neoisoliquiritin]	789.3461 RFU
NC(Cc1ccc(O)c(O)c1)C(=O)O (racemic) [DL-Dopa]	819.29 RFU
CCCCCC1CCCC(=O)O1 (stereo not shown) [δ-Decalactone]	1070.795 RFU
Chondroitin (sulfate)	714.418 RFU
COc1cc(C=CC(=O)O)cc(OC)c1OC [3,4,5-Trimethoxycinnamic acid]	1076.789 RFU

Compound	Lipase (RFU)
O=c1c(O[C@@H]2O[C@H](CO[C@@H]3O[C@H](CO)[C@@H](O)[C@H](O)[C@H]3O)[C@@H](O)[C@H](O)[C@H]2O)c(-c2ccc(O)c(O)c2)oc2cc(O)cc(O)c12 [Quercetin 3-gentiobioside]	676.8795 RFU
NC(N)=O [Urea]	934.3458 RFU and 864.3039 RFU
CCCCCCC[C@H](O)CC(=O)CCc1ccc(O)c(OC)c1 [Compound 8-Gingerol]	724.4815 RFU
CC(C)[C@H](C)[C@@H](O)[C@H](O)[C@@H](C)[C@H]1CC[C@H]2[C@@H]3COC(=O)[C@H]4C[C@H](O)[C@H](O)C[C@]4(C)[C@H]3CC[C@]12C [Brassinolide]	945.8414 RFU
CC(C)=C1C/C=C(\C)CC/C=C(\C)CC1=O [Germacrone]	974.0245 RFU
O=C(O)COc1ccccc1 [Phenoxyacetic acid]	872.4796 RFU and 824.9859 RFU
NC(=O)c1ccc[n+]([C@@H]2O[C@H](COP(=O)([O-])OP(=O)(O)OC[C@H]3O[C@@H](n4cnc5c(N)ncnc54)[C@H](OP(=O)([O-])[O-])[C@@H]3O)[C@@H](O)[C@H]2O)c1.[Na+].[Na+] [NADP (disodium salt)]	762.8961 RFU
CCOP(=O)(OCC)OCC [Triethyl Phosphate]	963.8293 RFU
CCCCCCCC(=O)CCc1ccc(O)c(OC)c1 [Paradol]	1060.26 RFU and 1109.933 RFU
CC(C)=CCC[C@](C)(O[C@@H]1O[C@H](CO)[C@@H](O)[C@H](O)[C@H]1O)[C@H]1CC[C@]2(C)[C@@H]1[C@H](O)C[C@@H]1[C@@]3(C)CC[C@H](O)C(C)(C)[C@@H]3[C@@H](O[C@@H]3O[C@H](CO)[C@@H](O)[C@H](O)[C@H]3O)C[C@]12C [Ginsenoside Rg1]	1026.433 RFU
CCCCC/C=C/C=C/C(=O)NCC(C)C [Pellitorine]	785.2318 RFU and 741.5651 RFU
CC(C)=CCc1cc2c(cc1O)oc(=O)c1c3ccc(O)cc3oc21 [Psoralidin]	1084.87 RFU
CC(C)[C@@H](C)[C@@H](O)[C@H](O)[C@@H](C)[C@H]1CC[C@H]2[C@@H]3COC(=O)[C@H]4C[C@H](O)[C@H](O)C[C@]4(C)[C@H]3CC[C@]12C [Epibrassinolide]	830.2794 RFU
CC(C)[C@@H](C)/C=C/[C@@H](C)[C@H]1CC[C@H]2[C@@H]3CC=C4C[C@@H](O)CC[C@]4(C)[C@H]3CC[C@]12C [Brassicasterol]	931.4963 RFU
C[C@@H]1CCCCCCCCCCCCC(=O)C1 [Muscone]	696.5228 RFU
Oc1cc(O)c2ccc(-c3ccc(O)c(O)c3)[o+]c2c1.[Cl-] [Luteolinidin (chloride)]	933.7809 RFU
CC(C)[C@]12CC(=O)[C@H](C)[C@H]1C2 [α-Thujone]	659.4321 RFU
Dextran	949.1554 RFU
Mannan	1091.353 RFU
CC(C)=CCC[C@](C)(O[C@@H]1O[C@H](CO[C@@H]2OC[C@@H](O)[C@H](O)[C@H]2O)[C@@H](O)[C@H](O)[C@H]1O)[C@H]1CC[C@]2(C)[C@@H]1[C@H](O)C[C@@H]1[C@@]3(C)CC[C@H](O[C@@H]4O[C@H](CO)[C@@H](O)[C@H](O)[C@H]4O[C@@H]4O[C@H](CO)[C@@H](O)[C@H](O)[C@H]4O[C@@H]4OC[C@@H](O)[C@H](O)[C@H]4O)C(C)(C)[C@@H]3CC[C@]12C [Notoginsenoside Fc]	1131.911 RFU
C[N+](C)(C)CCOP(=O)(O)O [Phosphoryl Choline]	931.0385 RFU
C=C(C)[C@@H](O)COc1c2ccoc2cc2oc(=O)ccc12 [Pangelin]	581.7367 RFU
O=C(O)[C@@H]1C[C@H](O)CN1 [cis-4-Hydroxy-L-proline]	944.0714 RFU

Compound	Lipase (RFU)
C[C@H](CCC(=O)NCCS(=O)(=O)[O-])[C@H]1CC[C@H]2[C@@H]3[C@H](O)C[C@@H]4C[C@H](O)CC[C@]4(C)[C@H]3CC[C@]12C.[Na+] [Taurochenodeoxycholic acid (sodium)]	1047.423 RFU
CN1[C@@H]2CC[C@H]1C[C@@H](OC(=O)C(CO)c1ccccc1)C2 (stereo partly shown) [Atropine]	1104.016 RFU
CC(C)=CCc1c(O)c(CC=C(C)C)c2oc3c(O)cccc3c(=O)c2c1O [Compound 8-Deoxygartanin]	1168.142 RFU
Triolein	728.6705 RFU
CCSCCC(N)C(=O)O (racemic) [D,L-Ethionine]	921.5463 RFU
Prosapogenin A	965.3667 RFU
O=c1c(O[C@@H]2O[C@H](CO[C@@H]3O[C@H](CO)[C@@H](O)[C@H](O)[C@H]3O)[C@@H](O)[C@H](O)[C@H]2O)c(-c2ccc(O)cc2)oc2cc(O)cc(O)c12 [Kaempferol 3-O-gentiobioside]	1150.858 RFU
D-Pantothenic acid (hemicalcium salt)	932.4036 RFU
C=CCSSCC=C [Diallyl disulfide]	1000.398 RFU and 1055.55 RFU
CC(C)(O)[C@@H]1Cc2cc3ccc(=O)oc3cc2O1 [S-(+)-Marmesin]	984.7966 RFU
CCCCC[C@H](O)/C=C/[C@H]1[C@H](O)CC(=O)[C@@H]1C/C=C\CCCC(=O)O [Prostaglandin E2]	1264.564 RFU
O=C(O)[C@H](O)[C@@H](O)[C@H](O)[C@H](O)CO[C@H]1O[C@H](CO)[C@H](O)[C@H](O)[C@H]1O [Melibionic Acid]	917.5297 RFU
CC1(C)CC[C@]2(C(=O)O)CC[C@]3(C)C(=CC[C@@H]4[C@@]5(C)CC[C@@H](O)C(C)(C)[C@@H]5CC[C@]43C)[C@@H]2C1 [3-Epioleanolic acid]	1064.911 RFU
O=C(O)[C@@H](O)[C@H](O)C(=O)O [D-Tartaric Acid]	685.8128 RFU
Alliin	782.3552 RFU
N[C@@H](CS)C(=O)NCC(=O)O.O=C(O)C(F)(F)F [Cysteinylglycine (TFA)]	954.0897 RFU
COc1ccc(-c2cc(=O)c3c(O)cc(O[C@@H]4O[C@H](CO[C@@H]5O[C@@H](C)[C@H](O)[C@@H](O)[C@H]5O)[C@@H](O)[C@H](O)[C@H]4O)cc3o2)cc1 [Linarin]	989.9197 RFU
CN1[C@@H]2CC[C@H]1C[C@@H](OC(=O)C(CO)c1ccccc1)C2 (stereo partly shown) [Atropine (sulfate monohydrate)]	1099.713 RFU
C[C@]12CCC(=O)C=C1CC[C@@H]1[C@@H]2C(=O)C[C@@]2(C)[C@H]1CC[C@]2(O)C(=O)CO [Cortisone]	1233.864 RFU
O=c1[nH]c(=O)c2[nH]c(=O)[nH]c2[nH]1.[Na] [Uric acid (sodium)]	855.3809 RFU
CC(C)CCC[C@@H](C)[C@H]1CC[C@H]2[C@@H]3CCC4=CC(=O)CC[C@]4(C)[C@H]3CC[C@]12C [Cholestenone]	787.5717 RFU
